Source: US20230119479A1, “A HISTONE DEACETYLASE INHIBITOR HAVING A NITROGEN-CONTAINING AROMATIC HETEROCYCLYL GROUP” (SHIONOGI & CO., LTD., priority 2019, published 2023)
Like-named read-outs stand apart in the source and are kept apart here.

Columns and labels:
[1] = system: HDACs other than HDAC2 (HDAC2 knockout K562 cells); test: Evaluation of HDAC2 selectivity: H3K9 histone acetylation in HDAC2 knockout K562 cells (AlphaLISA); type: cell-based; conditions: Homo sapiens, maximum concentration 83.3 μM, 100% = SAHA-treated group, read-out: maximum inhibition rate (H3K9 histone acetylation);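 further: 0% inhibition equals DMSO-treated group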
Experimental: Test Example 3: Evaluation of HDAC2 Selectivity
K562 cells were cultured in RPMI1640 medium (SIGMA, R8758) containing 10% FBS (Hyclone, SH30070.03) and 1% penicillin streptomycin (Nacalai Tesque, 26252-94). CompoZr (registered trademark) Zinc Finger Nuclease (Merck) targeting HDAC2 sequences was transfected into K562 cells by electroporation using Nucleofector (Lonza). The cells after transfection were subjected to limiting dilution, and DNA sequencing was performed on the cell clones in which mutations were detected by the PCR method. Cell clones lacking a base number that was not a multiple of 3 in both alleles were identified, and a single-cell cloning was performed on the cell clones to produce HDAC2 knockout K562 cells. It was confirmed that the expression of HDAC2 was not detected by Western blotting in the prepared cells.
By evaluating the H3K9 histone acetylation-enhancing activity of the test compound using HDAC2 knockout K562 cells, the inhibitory activity against HDACs other than HDAC2 was evaluated.
HDAC2 knockout K562 cells stored in liquid nitrogen were thawed and cultured in RPMI1640 medium (Nacalai Tesque, 30264-85) for 2 to 4 days. Using Echo555 (Beckman Coulter), the test compound was dispensed to the assay plate (Corning, 4513) at 37.5 nL/well, and then HDAC2 knockout K562 cells were seeded to 125 cells/4.5 μL/well, and stirred. At this time, the test compound was treated at 8 points (n=2) in the 3-fold dilution series from the maximum concentration of 83.3 μM. After culturing at 37° C. and 5% CO2 overnight, 1.5 μL/well of Lysis buffer (PerkinElmer, AL009F1) was added, and after incubating at room temperature for 15 minutes, 3 μL/well of Extraction buffer (PerkinElmer, AL009F2) was added and the mixture was incubated for 10 minutes at room temperature. Then, 5× antibody solution (prepared by diluting anti-H3K9 Acceptor beads (PerkinElmer, AL114M) 75-fold with a detection buffer prepared by diluting 10×Cell-Histone Detection buffer (PerkinElmer, AL009F3) 10-fold with ultrapure water, and diluting Biotinylated anti H3 antibody (PerkinElmer, AL118M) diluted 150 times with the detection buffer) was added at 3 μL/well, and after incubating at room temperature for 60 minutes, then 5× donor beads solution (prepared by diluting Streptavidin Donor beads (PerkinElmer, 6760002) 75 fold with the detection buffer) was added at 3 μL/well, and the mixture was incubated again at room temperature for 60 minutes, and then the emission value was measured using PHERAstar (BMG LABTECH) (excitation=680 nm, […]). […] For cell toxicity, cell viability rate was evaluated by the PrestoBlue method.

[2] = Platelet toxicity test using human blood progenitor cells (WST); type: cell-based; conditions: human bone marrow CD34+ progenitor cells, maximum concentration 25 μM
Experimental: Test Example 2: Platelet Toxicity Test Using Human Blood Progenitor Cells
Human bone marrow CD34+ progenitor cells (Lonza, 2M-101B) stored at −80° C. were thawed, spun down at 150 g for 10 minutes at 20° C., and a medium (StemSpan Expansion Supplement, STEM CELL TECHNOLOGIES, ST-02696) to which cytokines (StemSpan SFEM II, STEM CELL TECHNOLOGIES, ST-09655) was added was added to adjust to 2×10^4/well, the mixture was seeded in 12well non-coat dish (Corning, 3513), was incubated for 10 days at 37° C., 5% CO2. After 10 days, the cells were collected and spun down at 150 g for 10 minutes at 20° C., and a medium (StemSpan Expansion Supplement) containing cytokines (StemSpan SFEM II) was added so that the number of cells became 2×10^5 cells/ml. 50 μl of the cell suspension was seeded to each well of a 96-well plate (Corning, 3596) and allowed to stand overnight in an incubator at 37° C., 5% CO2. The next day, 50 μl of the test compound was treated to each well and allowed to stand for 48 hours in the incubator at 37° C., 5% CO2 (n=2). At this time, the test compound dissolved in 100% DMSO was serially diluted with DMSO at a 3-fold ratio, and then a medium containing cytokine was added to adjust the final concentration to 25, 8.33, 2.78, 0.93, 0.31, 0.1 μM. After that, 10 μl of WST (Cell count reagent SF, Nacalai Tesque Inc., 07553-44) was added to each well, and the mixture was allowed to stand in the incubator for 4 hours at 37° C., 5% CO2, and then the multi-label reader 2030 ARVO X4 (PerkinElmer) was used to measure the absorbance. At this time, the absorbance at 450 nm and the absorbance at 620 nm were obtained, and the difference between 450 nm and 620 nm was used as the measured value. The measured values were analyzed by Excel and TIBCO Spotfire, and IC50 values were calculated. At this time, for control (−), the well without cells was set as n=6 for one row, and the average value was calculated, and for control (+), the well in which DMSO was added to the cells so as to have the same concentration as the compound treatment group was set as n=6 for one row, and the average value was calculated and corrected for each plate. For the test compound, the average value of n=2 was used.

[3] = target: T1, HDAC2 Human recombinant C-terminal FLAG-tag (Homo sapiens, UniProt Q92769); test: Measurement of HDAC2 enzyme inhibitory activity (HTRF); type: biochemical; conditions: recombinant HDAC2, H3K9ac peptide
T1 construct: FLAG (C); purchased BPS Bioscience 50052
T1 sequence (Q92769 whole entry): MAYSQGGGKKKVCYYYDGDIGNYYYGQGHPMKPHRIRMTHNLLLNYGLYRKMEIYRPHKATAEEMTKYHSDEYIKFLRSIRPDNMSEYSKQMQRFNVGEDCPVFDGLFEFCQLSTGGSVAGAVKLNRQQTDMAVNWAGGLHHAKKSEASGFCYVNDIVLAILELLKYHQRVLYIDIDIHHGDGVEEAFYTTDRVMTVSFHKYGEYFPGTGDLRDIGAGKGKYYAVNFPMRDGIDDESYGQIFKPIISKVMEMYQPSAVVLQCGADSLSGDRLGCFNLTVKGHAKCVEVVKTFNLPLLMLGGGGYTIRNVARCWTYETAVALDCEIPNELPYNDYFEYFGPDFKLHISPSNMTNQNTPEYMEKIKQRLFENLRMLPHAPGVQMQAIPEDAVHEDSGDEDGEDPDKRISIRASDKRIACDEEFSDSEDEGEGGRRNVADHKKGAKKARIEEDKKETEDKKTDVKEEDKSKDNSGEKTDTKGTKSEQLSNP
Outline: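 Compounds were tested at 8 points in 3-fold dilutions from 99 μM final (n=2) against FLAG-tagged HDAC2 with biotinylated H3K9ac (1-21) peptide (0.6 μM as added). The reaction ran 3 h at room temperature in Tris pH 8.0 buffer, then was stopped with SAHA. Deacetylated product was detected by HTRF (Eu-anti-H3K9me0 antibody, streptavidin-XL665) as the 665/615-620 nm ratio.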

[4] = Metabolism stability test; type: in vitro ADME; conditions: human liver microsomes 0.5 mg protein/mL, 30 minutes, 37° C., NADPH
Experimental: Using commercially available pooled human hepatic microsomes, a compound of the present invention is reacted for a constant time, and a remaining rate is calculated by comparing a reacted sample and an unreacted sample, thereby, a degree of metabolism in liver is assessed.
A reaction is performed (oxidative reaction) at 37° C. for 0 minute or 30 minutes in the presence of 1 mmol/L NADPH in 0.2 mL of a buffer (50 mmol/L Tris-HCl pH 7.4, 150 mmol/L potassium chloride, 10 mmol/L magnesium chloride) containing 0.5 mg protein/mL of human liver microsomes. After the reaction, 50 μL of the reaction solution is added to 100 μL of a methanol/acetonitrile=1/1 (v/v), mixed and centrifuged at 3000 rpm for 15 minutes. The compound of the present invention in the supernatant is quantified by LC/MS/MS or Solid Phase Extraction (SPE)/MS, and a remaining amount of the compound of the present invention after the reaction is calculated, letting a compound amount at 0 minute reaction time be 100%. The hydrolysis reaction is carried out in the absence of NADPH, and the glucuronidation reaction is carried out in the presence of 5 mmol/L UDP-glucuronic acid instead of NADPH, and the same operation is carried out thereafter. The dilution concentration and dilution solvent are changed as necessary.

[5] = 3 hours room temperature, read-out: HDAC2 IC50

IC50 [3, 5] [nM]	remaining rate after reaction [4] [%]	IC50 ([3]; read-out: IC50 (HDAC2)) [nM]	SMILES	inhibition at up to 83.3 µM [1] [%]	IC50 at 48 h [2] [µM]
160			Cn1cc(-c2ccc(N)c(NC(=O)c3cnc(-c4cnn(C)c4)cn3)c2)cn1 [Compound I-036]	8	> 25
200			Cn1cc(-c2ccc(N)c(NC(=O)c3ccc(C4CC4)cn3)c2)cn1 [Compound I-112]		> 25
160			COc1ccc(C(=O)Nc2cc(-c3ccc(F)nc3)ccc2N)nc1 [Compound I-124]	9	> 25
180			CCOc1cnc(C(=O)Nc2cc(-c3cnn(C)c3)ccc2N)cn1 [Compound I-139]		> 25
230			Cn1cc(-c2ccc(N)c(NC(=O)c3cc4ccccc4cn3)c2)cn1 [Compound I-141]	6	> 25
250	97.9		Cn1cc(-c2ccc(N)c(NC(=O)c3cnc(OCC(F)F)cn3)c2)cn1 [Compound I-152]		
170	92		CN(C)c1ccc(C(=O)Nc2cc(-c3cnn(C)c3)ccc2N)nc1 [Compound I-177]		
81	93.5		CN(C)c1cnc(C(=O)Nc2cc(-c3cnn(C)c3)ccc2N)cn1 [Compound I-179]	9	
240			Cn1cc(-c2cc(C(=O)Nc3cc(-c4ccc(F)nc4)ccc3N)no2)cn1 [Compound I-198]	5	> 25
170			CCc1cnc(C(=O)Nc2cc(-c3cnn(C)c3)ccc2N)cn1 [Compound I-250]	5	
340			COc1ccc(C(=O)Nc2cc(-c3cnn(C)c3)ccc2N)nn1 [Compound I-254]	3	

Further lines, the compound ahead of its results:

SMILES	IC50 [3, 5] [nM]	remaining rate after reaction [4] [%]	IC50 ([3]; read-out: IC50 (HDAC2)) [nM]	inhibition at up to 83.3 µM [1] [%]	IC50 at 48 h [2] [µM]
Cn1cc(-c2ccc(C(=O)Nc3nc(-c4cccs4)ccc3N)nn2)cn1 [Compound I-028]	230			8	> 25
Nc1ccc(-n2cccc2)nc1NC(=O)c1cnc(N2CCOCC2)cn1 [Compound I-030]	190	101		9	
Nc1ccc(-c2ccc(F)nc2)cc1NC(=O)c1ccc(N2CCOCC2)cn1 [Compound I-093]	130				> 25
Nc1ccc(-c2ccc(F)nc2)cc1NC(=O)c1cnc(OCF)cn1 [Compound I-121]	240				> 25
Nc1ccc(-c2ccc(F)nc2)cc1NC(=O)c1cnc(OCC2CC2)cn1 [Compound I-122]	250			3	> 25
CCOCCOc1cnc(C(=O)Nc2cc(-c3ccc(F)nc3)ccc2N)cn1 [Compound I-126]	140			5	> 25
COCCOc1ccc(C(=O)Nc2cc(-c3ccc(F)nc3)ccc2N)nc1 [Compound I-127]	110			7	> 25
Nc1ccc(-c2ccc(F)nc2)cc1NC(=O)c1cnc(C2CC2)cn1 [Compound I-129]	94				> 25
Nc1ccc(-c2ccc(F)nc2)cc1NC(=O)c1cnc(OC(F)F)cn1 [Compound I-132]	430			6	> 25
Nc1ccc(-c2ccc(F)nc2)cc1NC(=O)c1ccc(OCF)cn1 [Compound I-142]	180			8	> 25
Nc1ccc(-c2ccc(F)nc2)cc1NC(=O)c1ccc(C(F)F)cn1 [Compound I-144]	230			7	> 25
Nc1ccc(-c2ccc(F)nc2)cc1NC(=O)c1ccc2ocnc2n1 [Compound I-148]	150	94.9			
Nc1ccc(-c2ccc(F)nc2)nc1NC(=O)c1cnc(C2CC2)cn1 [Compound I-157]				7	> 25
Nc1ccc(-c2ccccc2)nc1NC(=O)c1cnc(C2CC2)cn1 [Compound I-158]				7	> 25
Nc1ccc(-n2cccc2)nc1NC(=O)c1ccc(C2CC2)cn1 [Compound I-160]				6	> 25
Nc1ccc(-n2cccc2)nc1NC(=O)c1cnc(C2CC2)cn1 [Compound I-161]	350			9	> 25
Cc1cnc(C(=O)Nc2nc(-c3ccccc3)ccc2N)cn1 [Compound I-169]	360	91.4			
CC(=O)Nc1ccc(C(=O)Nc2cc(-c3ccc(F)nc3)ccc2N)nc1 [Compound I-280]	50			8	
Nc1ccc(-c2cccnc2)cc1NC(=O)c1cnc(N2CCOCC2)cn1 [Compound I-312]			45		
